Data taken from patent publication US20070299092A1 (Wyeth, priority 2004, published 2007).
Where “and” joins values, the source holds several entries; their conditions need not be identical. Identical values can stand only once. Like-named read-outs stand apart in the source and are kept apart here.

Experiments:
KDR [1] = molecular target: T1, KDR (Homo sapiens, UniProt P35968); details: compound conc. 1000 nM
KDR [2] = molecular target: T1, KDR; assay: cell-based; details: for IC50: IC50 (nM), inhibition of KDR kinase autophosphorylation in KDR15 cells, KDR15 cells, VEGF 50 ng/ml, phospho-KDR-Y996 immunoblot; for inhibition at 1 µM: read-out: % Inhibition of KDR kinase autophosphorylation in KDR15 cells, compound conc. 1000 nM
[3] = molecular target: T2, human KDR (VEGF-receptor-2) (Homo sapiens, UniProt P35968); assay: KDR kinase enzyme assay wash-out experiments (irreversible inhibition); type: biochemical
T2 construct: beginning at Met-806; (5′-ATG GAT CCA GAT GM CTC CCA TTG) and ending at Val-1356; made in house

[4] = molecular target: T2, human KDR (VEGF-receptor-2); assay: KDR kinase enzyme assay (DELFIA, KDR-IC-Flag, poly(Glu4-Tyr) peptide); type: biochemical; details: for inhibition at 1 µM: Concentration 1000 nM; for inhibition at 1 µM / inhibition at 0.1 µM: read-out: % Inhibition; for inhibition at 0.1 µM: Concentration 100 nM
[5] = test system: Human umbilical vein endothelial cells (HUVEC); assay: HUVEC proliferation assay, VEGF-dependent growth ([3H]-thymidine incorporation); type: cell-based; details: for inhibition at 0.1 µM / inhibition at 1 µM / inhibition at 10 µM: Homo sapiens, HUVEC
How it was run: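 HUVEC seeded 4000 cells/well, attached overnight, then given compound in serum/VEGF-free EBM plus 50 ng/ml VEGF (final); parallel plates used EGM2 with 2% serum lacking VEGF. Incubation 4-5 days at 37° C. DNA synthesis measured by 5 h [3H]-thymidine (1 μCi/well) incorporation, scintillation-counted.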

T1 sequence (P35968 20-1356): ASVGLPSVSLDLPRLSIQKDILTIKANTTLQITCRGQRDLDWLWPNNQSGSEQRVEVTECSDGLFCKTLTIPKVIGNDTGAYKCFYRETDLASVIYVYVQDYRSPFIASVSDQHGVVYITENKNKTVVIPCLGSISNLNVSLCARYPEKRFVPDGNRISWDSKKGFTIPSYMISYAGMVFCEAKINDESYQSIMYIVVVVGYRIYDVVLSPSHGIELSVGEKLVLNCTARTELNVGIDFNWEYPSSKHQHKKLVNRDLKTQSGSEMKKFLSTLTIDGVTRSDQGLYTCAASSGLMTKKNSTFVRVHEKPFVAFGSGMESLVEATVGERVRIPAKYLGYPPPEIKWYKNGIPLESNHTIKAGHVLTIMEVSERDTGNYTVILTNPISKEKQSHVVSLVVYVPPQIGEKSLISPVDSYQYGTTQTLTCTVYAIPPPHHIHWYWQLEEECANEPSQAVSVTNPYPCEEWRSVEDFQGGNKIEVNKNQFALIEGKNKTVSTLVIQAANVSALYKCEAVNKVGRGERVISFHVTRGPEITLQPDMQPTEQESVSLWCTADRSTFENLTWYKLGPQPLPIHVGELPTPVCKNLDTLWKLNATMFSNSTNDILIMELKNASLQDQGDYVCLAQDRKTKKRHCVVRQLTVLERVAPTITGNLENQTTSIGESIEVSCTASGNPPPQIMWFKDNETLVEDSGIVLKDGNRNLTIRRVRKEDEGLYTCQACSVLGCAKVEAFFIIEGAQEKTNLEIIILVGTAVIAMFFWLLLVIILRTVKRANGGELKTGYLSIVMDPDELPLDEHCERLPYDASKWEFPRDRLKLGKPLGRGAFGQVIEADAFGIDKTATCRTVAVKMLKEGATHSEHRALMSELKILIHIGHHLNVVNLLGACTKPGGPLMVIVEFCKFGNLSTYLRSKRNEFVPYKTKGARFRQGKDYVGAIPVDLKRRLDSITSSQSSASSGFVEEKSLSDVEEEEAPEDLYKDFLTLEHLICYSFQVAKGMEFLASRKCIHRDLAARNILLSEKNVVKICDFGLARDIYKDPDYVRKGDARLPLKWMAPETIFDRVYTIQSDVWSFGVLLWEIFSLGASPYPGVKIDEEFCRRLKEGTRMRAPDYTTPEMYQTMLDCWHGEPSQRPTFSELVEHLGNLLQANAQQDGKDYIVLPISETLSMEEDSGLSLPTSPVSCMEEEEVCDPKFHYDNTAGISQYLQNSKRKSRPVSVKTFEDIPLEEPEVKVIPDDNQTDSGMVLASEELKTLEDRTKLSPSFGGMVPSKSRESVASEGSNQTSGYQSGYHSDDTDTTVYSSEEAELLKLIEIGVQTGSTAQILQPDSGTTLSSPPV
T2 sequence (P35968 806-1356): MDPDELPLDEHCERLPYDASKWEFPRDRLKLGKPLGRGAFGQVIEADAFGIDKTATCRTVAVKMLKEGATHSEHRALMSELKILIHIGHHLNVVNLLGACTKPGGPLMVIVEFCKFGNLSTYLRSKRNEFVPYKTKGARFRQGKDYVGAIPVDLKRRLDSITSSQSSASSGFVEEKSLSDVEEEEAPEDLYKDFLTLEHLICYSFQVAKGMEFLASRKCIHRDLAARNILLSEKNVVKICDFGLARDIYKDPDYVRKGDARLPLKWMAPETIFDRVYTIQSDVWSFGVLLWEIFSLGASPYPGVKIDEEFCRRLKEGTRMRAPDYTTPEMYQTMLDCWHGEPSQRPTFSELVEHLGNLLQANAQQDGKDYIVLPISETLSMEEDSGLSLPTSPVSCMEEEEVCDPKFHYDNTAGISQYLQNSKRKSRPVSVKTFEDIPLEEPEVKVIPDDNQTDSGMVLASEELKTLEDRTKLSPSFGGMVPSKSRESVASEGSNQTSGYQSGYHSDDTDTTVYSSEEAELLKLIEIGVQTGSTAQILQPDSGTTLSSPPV

| SMILES | % Inhibition of KDR kinase autophosphorylation in KDR15 cells (KDR [1]) | IC50 (KDR [2]) [nM] | inhibition at 1 µM (KDR [2]) [%] | IC50 ([3]; no wash) | IC50 ([3]; wash out) | IC50 ([4]; ATP conc. 10 μM) | inhibition at 1 µM ([4]; ATP conc. 10 μM) [%] | inhibition at 1 µM ([4]; ATP conc. 1000 μM) [%] | inhibition at 0.1 µM ([4]; ATP conc. 10 μM) [%] | inhibition at 10 µM ([4]; Concentration 10000 nM, ATP conc. 10 μM) [%] | melting point [°C] | Behaviour as reversible or irreversible binding inhibitor ([3]; IC50 with wash-out step compared to no wash-out step) | inhibition at 0.1 µM ([5]; conc. 100 nM) [%] | inhibition at 1 µM ([5]; conc. 1000 nM) [%] | inhibition at 10 µM ([5]; conc. 10000 nM) [%] | % Inhibition of VEGF-dependent growth of HUVEC ([5]; conc. 100 nM) [%] | % Inhibition of VEGF-dependent growth of HUVEC ([5]; conc. 10000 nM) | % Inhibition of VEGF-dependent growth of HUVEC ([5]; conc. 1000 nM) [%] |
| --- | --- | --- | --- | --- | --- | --- | --- | --- | --- | --- | --- | --- | --- | --- | --- | --- | --- | --- |
| COc1cc2ncnc(NC3=CC(=O)C(C)=CC3=O)c2cc1OC [Example 4, 2-[(6,7-dimethoxy-4-quinazolinyl)amino]-5-methylbenzo-1,4-quinone] | 106% | < 15.6 | 100 | 285 nM | > 1000 nM | 80.5 nM and 285 nM and 707 nM | 15 | 12 | – | – | – | appear to act like reversible binding inhibitors | – | – | – | – | – | – |
| COc1cc2ncnc(NC3=CC(=O)C=C(C)C3=O)c2cc1OC [Example 7, 2-[(6,7-dimethoxy-4-quinazolinyl)amino]-6-methylbenzo-1,4-quinone] | 41% | 250 | – | 2.3 nM | 1.2 nM | 2.3 nM and 1.3 nM | 96 | 97 | 85 | 96 | – | – | 23 | 79 | 97 | – | – | – |
| COCCOc1cc2ncnc(NC3=CC(=O)C(N(C)c4ccc(N(C)C)cc4)=CC3=O)c2cc1OC [Example 75, 2-[[4-(dimethylamino)phenyl](methyl)amino]-5-{[6-methoxy-7-(2-methoxyethoxy)quinazolin-4-yl]amino}benzo-1,4-quinone] | 61% | – | 45 | 93 nM | 161 nM | 93 nM | 92 | 93 | 47 | – | – | – | -22 | 41 | 91 | – | – | – |
| COCCOc1cc2ncnc(NC3=CC(=O)C(N(C)c4ccc(OC)cc4)=CC3=O)c2cc1OC [Example 78, 2-{[6-methoxy-7-(2-methoxyethoxy)quinazolin-4-yl]amino}-5-[(4-methoxyphenyl)(methyl)amino]benzo-1,4-quinone] | 61% | – | – | 147 nM and 95.9 nM | 514 nM and 150 nM | 147 nM and 95.9 nM and 406 nM | – | – | – | – | 197 to 198 | – | 6 | – | – | 9 | 94% and 99% and 74% | – |
| COCCOc1cc2ncnc(NC3=CC(=O)C(N(C)C4CCCCC4)=CC3=O)c2cc1OC [Example 80, 2-[cyclohexyl(methyl)amino]-5-{[6-methoxy-7-(2-methoxyethoxy)quinazolin-4-yl]amino}benzo-1,4-quinone] | 52% | < 62.5 | – | – | – | 654 nM | – | – | – | – | 178 to 180 | – | 39 | 85 | 97 | – | – | – |

Second part, led by results:

| % Inhibition of KDR kinase autophosphorylation in KDR15 cells (KDR [1]) | IC50 (KDR [2]) [nM] | inhibition at 1 µM (KDR [2]) [%] | IC50 ([3]; no wash) | IC50 ([3]; wash out) | IC50 ([4]; ATP conc. 10 μM) | inhibition at 1 µM ([4]; ATP conc. 10 μM) [%] | inhibition at 1 µM ([4]; ATP conc. 1000 μM) [%] | inhibition at 0.1 µM ([4]; ATP conc. 10 μM) [%] | inhibition at 10 µM ([4]; Concentration 10000 nM, ATP conc. 10 μM) [%] | melting point [°C] | SMILES | Behaviour as reversible or irreversible binding inhibitor ([3]; IC50 with wash-out step compared to no wash-out step) | inhibition at 0.1 µM ([5]; conc. 100 nM) [%] | inhibition at 1 µM ([5]; conc. 1000 nM) [%] | inhibition at 10 µM ([5]; conc. 10000 nM) [%] | % Inhibition of VEGF-dependent growth of HUVEC ([5]; conc. 100 nM) [%] | % Inhibition of VEGF-dependent growth of HUVEC ([5]; conc. 10000 nM) | % Inhibition of VEGF-dependent growth of HUVEC ([5]; conc. 1000 nM) [%] |
| --- | --- | --- | --- | --- | --- | --- | --- | --- | --- | --- | --- | --- | --- | --- | --- | --- | --- | --- |
| 40% and 54% and 64% | 386 | – | – | – | 4 nM | 94 | 96 | 93 | – | – | COc1cc2ncnc(NC3=CC(=O)C(Oc4ccc(Cl)cc4)=CC3=O)c2cc1OC [Example 94, 2-(4-chlorophenoxy)-5-[(6,7-dimethoxyquinazolin-4-yl)amino]benzo-1,4-quinone] | – | 28 | 60 | 94 | 20 | 78% | 52 |
| 22% | – | 26 | – | – | 52.8 nM | 91 | 96 | 67 | – | 218 to 220 | COCCOc1cc2ncnc(NC3=CC(=O)C(OCc4ccccc4)=CC3=O)c2cc1OC [Example 96, 2-(benzyloxy)-5-{[6-methoxy-7-(2-methoxyethoxy)quinazolin-4-yl]amino}benzo-1,4-quinone] | – | – | – | – | – | – | – |
| 29% | – | 20 | – | – | – | 92 | 96 | 93 | – | 200 to 205 | COc1cc2ncnc(NC3=CC(=O)C(c4ccccc4)=CC3=O)c2cc1OC [Example 99, 2-[(6,7-dimethoxyquinazolin-4-yl)amino]-5-phenylbenzo-1,4-quinone] | – | – | – | – | – | – | – |
